From patent publication US11622967B2 (SUVEN LIFE SCIENCES LIMITED, priority 2018, dated 2023)
Counter-ions that a name gives are not always drawn.

Assays:
[1] = system: orexin-B-saporin lesioned male Wistar rats; test: Sleep and wake profile by telemetric EEG in orexin-B-saporin lesioned rats (narcolepsy model); format: in vivo, rat
Experimental: Rats were anesthetized with 4% isoflurane (Baxter India Private Limited) and maintained on 2% isoflurane for entire duration of surgery. Under isoflurane anesthesia, rats were placed into a stereotaxic instrument and received bilateral microinjections of 0.5 μL containing 490 ng of orexin-B-saporin conjugate (Advanced Targeting System, San Diego, Calif., USA) or saline solution in the lateral hypothalamus (coordinates: AP: −3.5 mm; ML: ±1.5 mm; DV: −8.7 mm).^3 Microinjections were performed using a glass micropipette (20 μm at the tip). Analgesic and antibiotic treatment were administered at the end of this procedure.
After injection of the orexin-B-Saporin, telemetric transmitter (Model F40-EET; DSI, St. Paul, Minn., USA) was implanted into intraperitoneal cavity of the rat and leads were tunneled subcutaneously to head. One pair of electrodes were implanted epidurally into the frontal cortex region using stainless steel screws (CMA Microdialysis, Stockholm, Sweden) at coordinates of AP+2.0 mm, ML±2.2 mm (Paxinos and Watson, 2004)^3 for recording of EEG and electrodes were fixed to the skull with dental acrylic cement (DENTALON® plus). The second set of lead wires was implanted into the neck nuchal muscle to record EMG. Incision was closed using non absorbable sutures. After a surgical recovery of about 3 weeks, animals were acclimatized to the handling procedures and were given a mock dosing for 3 days before the first experimental day.
On the day of study, transmitter was switched on using magnet and animals were transferred on to the receiver along with the home cage. Recording was started 1 h before lights-off using Ponemah (Version 5.2) software. […] Recording was continued for 8 h post treatment. EEG and EMG were collected as primary signals and sampled at 500 Hz. Whereas, temperature and activity were sampled at 250 Hz. The data was stored for off-line analysis using NeuroScore software (Version 3.0).
Statistical analysis: EEG data was scored with automated standard sleep scoring protocols using Neuroscore. Rodent EEG and EMG data was manually classified into one of three sleep/wake states: awake, REM (Rapid eye movement/Paradoxical sleep), or NREM (Non-rapid eye movement/slow wave sleep) according to visual analysis of EEG frequency and amplitude characteristics and EMG activity using 10 s epochs. Waking activity was defined as relatively low-amplitude EEG activity with low power in the low-frequency bands, accompanied by moderate to high level EMG activity. NREM was defined as generally high-amplitude EEG activity with greater power in the low-frequency bands from 0.5-4 Hz, accompanied by minimal EMG activity. REM sleep was characterized by moderate and constant amplitude EEG activity focused in the θ (6-9 Hz) range with no (or only sporadic) EMG activity. […]

[2] = system: cortical histamine levels; test: Histamine modulation in prefrontal cortex, microdialysis; format: in vivo, rat
Text: (§1) Male Wistar rats (240-300 g body weight) were stereotaxically implanted with a microdialysis guide cannula in prefrontal cortex (PFC; AP: +3.2 mm, ML: −0.5 mm, DV: −1.0 mm) under isoflurane anesthesia. Co-ordinates were taken according to atlas for the rat brain (Paxinos and Watson 2004) with reference points taken from bregma and vertical from the skull. The rats were allowed to recover individually for four days in a round bottom Plexiglas bowl with free access to feed and water.
(§2) After surgical recovery of 4 days, male Wistar rats were connected to dual quartz lined two-channel liquid swivel (Instech, UK) on a counter balance lever arm, which allowed unrestricted movements of the animal. […]
Quantitation of histamine: Histamine concentrations in dialysates were quantified using post-column derivatization with o-phthalaldehyde employing HPLC coupled to fluorescence detector and analysis was carried out in the calibration range of 33-640 fmol/20 μL
Statistical analysis: All microdialysis data for histamine was plotted as percent change from mean dialysate basal concentrations with 100% defined as the average of five pre-dose values. […] Area under the curve (AUC) values for percent change in histamine levels were calculated and the statistical significance between the mean AUC value were compared against vehicle treatment using one-way ANOVA followed by Dunnett's test. […]

[3] = system: male C57BL/6J mice; test: Sleep and wake profile by telemetric EEG in male C57BL/6J mice; format: in vivo, mouse; conditions: 10 and 30 mg/kg, p.o., first 4 hours post dosing (FIG. 3)
Text: Mice were anesthetized with isoflurane (Baxter India Private Limited; 4% in oxygen for induction; 2% for maintenance) and were fixed into the stereotaxic frame (Stoelting, Ill., USA) to perform surgery. An incision was made to reveal bregma from which coordinates were taken. Telemetric transmitter (Model F20-EET; DSI, St. Paul, Minn., USA) was implanted into intraperitoneal cavity of the […] and leads were tunneled subcutaneously to head. One pair of flexible spring electrodes were implanted epidurally into the frontal cortex region at coordinates of AP+1.0 mm, ML±2.0 mm (Franklin and Paxinos, 20074) for recording of EEG and electrodes were fixed to the skull with dental acrylic cement (DENTALON® plus). The second set of lead wires was implanted into the neck nuchal muscle to record EMG. Incision was closed using non absorbable sutures. After a surgical recovery of minimum 2 weeks, animals were acclimatized to the handling procedures and were given a mock dosing for 3 days before the first experimental day.
On the day of study, transmitter was switched on using magnet and animals were transferred on to the receiver along with the home cage. Recording was started 3 h after the lights-on using Ponemah (Version 5.2) software. […] Recording was continued for 6 h post treatment. […]
(§3) Statistical analysis: EEG data was scored with automated standard sleep scoring protocols using Neuroscore. […]

[4] = system: male Wistar rats; test: Sleep and wake profile by telemetric EEG in male Wistar rats; format: in vivo, rat; conditions: 10 and 30 mg/kg, p.o., first 4 hours post dosing (FIG. 2)
Text: Rats were anesthetized with isoflurane (Baxter India Private Limited; 4% in oxygen for induction; 2% for maintenance) and were fixed into the stereotaxic frame (Stoelting, Ill., USA) to perform surgery. An incision was made to reveal bregma from which coordinates were taken. Telemetric transmitter (Model F40-EET; DSI, St. Paul, Minn., USA) was implanted into intraperitoneal cavity of the rat and leads were tunneled subcutaneously to head. One pair of electrodes were implanted epidurally into the frontal cortex region using stainless steel screws (CMA Microdialysis, Stockholm, Sweden) at coordinates of AP+2.0 mm, ML±2.2 mm (Paxinos and Watson, 2004) for recording of EEG and electrodes were fixed to the skull with dental acrylic cement (DENTALON® plus). The second set of lead wires was implanted into the neck nuchal muscle to record electromyogram (EMG). Incision was closed using non absorbable sutures. After a surgical recovery of minimum 2 weeks, animals were acclimatized to the handling procedures and were given a mock dosing for 3 days before the first experimental day.
On the day of study, transmitter was switched on using magnet and animals were transferred on to the receiver along with the home cage. […]
as §3

[5] = system: cortical levels of dopamine and norepinephrine; test: Dopamine and norepinephrine modulation in prefrontal cortex, microdialysis; format: in vivo, rat; conditions: male Wistar rats, 3-30 mg/kg, p.o. (FIG. 7)
Text: as §1, §2
Quantitation of dopamine and norepinephrine: Monoamines in dialysate were derivatized with dansyl chloride and quantified using LC-MS/MS based method in calibration ranges of 0.07-15 nmol/L for all […] analytes.
Statistical analysis: All microdialysis data for dopamine and norepinephrine were plotted as percent change from mean dialysate basal concentrations with 100% defined as the average of four pre-dose values. […] Area under the curve (AUC) values for percent change in neurotransmitter levels were calculated and the statistical significance between the mean AUC value were compared against vehicle treatment using one-way ANOVA followed by Dunnett's test. […]

[6] = target: histamine-3 receptor (in-vivo) (Rattus norvegicus (Rat), UniProt Q9QYN8); test: (R)-α-methylhistamine induced dipsogenia assay; conditions: rats, oral, RAMH 2.5 mg/kg s.c.
Chain of histamine-3 receptor (in-vivo) (Q9QYN8 whole entry): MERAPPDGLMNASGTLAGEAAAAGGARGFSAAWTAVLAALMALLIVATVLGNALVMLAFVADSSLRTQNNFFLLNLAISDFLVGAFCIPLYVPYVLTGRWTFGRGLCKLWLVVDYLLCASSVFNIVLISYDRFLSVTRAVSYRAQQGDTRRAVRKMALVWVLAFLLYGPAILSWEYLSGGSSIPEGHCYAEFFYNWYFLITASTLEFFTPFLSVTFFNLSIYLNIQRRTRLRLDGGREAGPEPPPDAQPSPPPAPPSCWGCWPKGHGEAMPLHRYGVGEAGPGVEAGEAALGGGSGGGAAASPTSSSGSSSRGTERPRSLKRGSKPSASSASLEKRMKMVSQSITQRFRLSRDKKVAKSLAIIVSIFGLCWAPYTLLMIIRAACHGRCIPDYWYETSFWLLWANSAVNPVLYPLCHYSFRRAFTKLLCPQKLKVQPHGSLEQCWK
Experimental: The experiment consisted of 3 days. The animals were individually housed in their home cages. 24 h water consumption was recorded for 2 days. Rats were randomized according to average of 2 days water consumption. […] Statistical analysis: Data was compared and assessed by one-way ANOVA followed by Dunnett's post hoc test by using graph pad prism software package.

O=C(CN1CCOCC1)Nc1ccc(OC2CCN(C3CCC3)CC2)cc1 [SUVN-G3031, N-[4-(1-Cyclobutylpiperidin-4-yloxy)phenyl]-2-(morpholin-4-yl)acetamidedihydrochloride]
cataplectic (direct transition of wake to REM) episodes ([1]; orexin-B-saporin lesioned rats (FIG. 5)): decreased | wake period compared to vehicle ([1]; orexin-B-saporin lesioned rats, first 4 hours post dosing (FIG. 4a)): significant increase | REM sleep ([1]; orexin-B-saporin lesioned rats, first 4 hours post dosing (FIG. 4b)): significant decrease | NREM sleep ([1]; orexin-B-saporin lesioned rats, first 4 hours post dosing (FIG. 4c)): no effect | mean AUC of percent change in histamine levels compared to vehicle ([2]; male Wistar rats, 0.3, 1 and 10 mg/kg, p.o. (FIG. 6)): statistically significant | cortical histamine levels ([2]; male Wistar rats, 0.3-10 mg/kg, p.o.): significant increase | time spent in wake period compared to vehicle [3]: significant increase | time spent in wake period compared to vehicle [4]: significantly increased | cortical levels of dopamine [5]: significant increase | cortical levels of norepinephrine [5]: significant increase | effect on (R)-α-methylhistamine induced dipsogenia (water consumption) ([6]; at 60 min (FIG. 1a)): blocked | effect on (R)-α-methylhistamine induced dipsogenia (water consumption) ([6]; at 120 min (FIG. 1b)): blocked
